Structures can show the parent of a compound that is named as a salt.
The compounds below were run against T1, human B1 (Homo sapiens, UniProt P46663) (assay: Calcium flux assay for Bradykinin B1 antagonist, CHO-K1 cell line expressing human B1). Details: CHO-K1 cells expressing human B1, agonist Lys-(Des-Arg)-Bradykinin, read-out: Potency (IC50 value against human B1).
T1 construct: host or cells: CHO-K1
T1 sequence (P46663 1-353): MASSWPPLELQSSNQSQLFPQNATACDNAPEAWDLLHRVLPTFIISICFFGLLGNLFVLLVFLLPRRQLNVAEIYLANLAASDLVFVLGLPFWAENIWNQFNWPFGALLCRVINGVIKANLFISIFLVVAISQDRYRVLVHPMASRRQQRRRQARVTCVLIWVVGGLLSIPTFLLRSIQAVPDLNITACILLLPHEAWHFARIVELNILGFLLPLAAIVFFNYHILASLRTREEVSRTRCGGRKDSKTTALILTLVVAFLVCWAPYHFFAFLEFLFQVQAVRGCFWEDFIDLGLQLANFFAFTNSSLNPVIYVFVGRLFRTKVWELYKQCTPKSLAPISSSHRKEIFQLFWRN
Assay type: cell-based
Procedure, shortened: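 CHO-K1 cells expressing human B1, loaded with 5 μM Fluo-4AM (2 h, 37° C) in HEPES buffer pH 7.4 with probenecid and 0.1% BSA, were preincubated 30 min at 25° C with compound (8 concentrations, triplicate, 1% DMSO) before B1 agonist addition. Ca2+ fluorescence monitored at 538 nm; background-normalized integrated values plotted against log antagonist concentration.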

Compound | IC50 [nM]
COc1cc(C)c(S(=O)(=O)N(Cc2noc(C(=O)N3CCN(CCN4CCCC4)CC3)n2)C2CC2)c(C)c1 [Ex 318, N-Cyclopropyl-4-methoxy-2,6-dimethyl-N-[(5-{[4-(2-pyrrolidin-1-ylethyl)piperazin-1-yl]carbonyl}-1,2,4-oxadiazol-3-yl)methyl]benzenesulfonamide] | 10 to 100
COc1cc(C)c(S(=O)(=O)N(C)Cc2cc(C(=O)N(C)Cc3ccc(CN4CCC(N(C)C)C4)cc3)co2)c(C)c1 (stereo not shown) [Ex 136, N-(4-{[3-(Dimethylamino)pyrrolidin-1-yl]methyl}benzyl)-5-({[(4-methoxy-2,6-dimethylphenyl)sulfonyl](methyl)amino}methyl)-N-methylfuran-3-carboxamide] | 10 to 100
CCN(Cc1cc(C(=O)N(C)Cc2ccc(C3=NCCN3)cc2)co1)S(=O)(=O)c1c(C)cc(OC)cc1C [Ex 103, N-[4-(4,5-Dihydro-1H-imidazol-2-yl)benzyl]-5-({ethyl[(4-methoxy-2,6-dimethylphenyl)sulfonyl]amino}methyl)-N-methylfuran-3-carboxamide trifluoroacetate] | 10 to 100
COc1cc(C)c(S(=O)(=O)N(C)Cc2nnc(C(=O)N3CCN(CC4CCN(C5CCC5)CC4)CC3)o2)c(C)c1 [Ex 265, N-{[5-({4-[(1-Cyclobutylpiperidin-4-yl)methyl]piperazin-1-yl}carbonyl)-1,3,4-oxadiazol-2-yl]methyl}-4-methoxy-N,2,6-trimethylbenzenesulfonamide trifluoroacetate] | 100 to 1000
COc1cc(C)c(S(=O)(=O)N(C)Cc2cc(C(=O)NCCc3ccc(CNCC(C)C)cc3)co2)c(C)c1 [Ex 42, 5-({[(4-methoxy-2,6-dimethylphenyl)sulfonyl](methyl)amino}methyl)-N-[2-(4-{[(2-methylpropyl)amino]methyl}phenyl)ethyl]furan-3-carboxamide] | 100 to 1000
COc1cc(C)c(S(=O)(=O)N(C)Cc2noc(C(=O)N3CCN(C4CCN(C)CC4)CC3)n2)c(C)c1 [Ex 302, 4-Methoxy-N,2,6-trimethyl-N-[(5-{[4-(1-methylpiperidin-4-yl)piperazin-1-yl]carbonyl}-1,2,4-oxadiazol-3-yl)methyl]benzenesulfonamide trifluoroacetate] | 100 to 1000
COc1cc(C)c(S(=O)(=O)N(C)Cc2nnc(C(=O)N3CCN(C4CCN(C)CC4)CC3)s2)c(C)c1 [Ex 332, 4-Methoxy-N,2,6-trimethyl-N-[(5-{[4-(1-methylpiperidin-4-yl)piperazin-1-yl]carbonyl}-1,3,4-thiadiazol-2-yl)methyl]benzenesulfonamide trifluoroacetamide] | 100 to 1000
COc1cc(C)c(S(=O)(=O)N(C)Cc2nnc(C(=O)N3CCN(CCCN4CCCC4)CC3)o2)c(C)c1 [Ex 259, 4-Methoxy-N,2,6-trimethyl-N-[(5-{[4-(3-pyrrolidin-1-ylpropyl)piperazin-1-yl]carbonyl}-1,3,4-oxadiazol-2-yl)methyl]benzenesulfonamide] | 10 to 100
COc1cc(C)c(S(=O)(=O)N(C)Cc2nc(C(=O)N(C)Cc3cccc(CN4CCCC4)c3)no2)c(C)c1 [Ex 324, 5-({[(4-Methoxy-2,6-dimethylphenyl)sulfonyl](methyl)amino}methyl)-N-methyl-N-[3-(pyrrolidin-1-ylmethyl)benzyl]-1,2,4-oxadiazole-3-carboxamide trifluoroacetate] | 10 to 100
COc1cc(C)c(S(=O)(=O)N(C)Cc2cc(C(=O)N3CCN(CCN4CCCC4)CC3)co2)c(C)c1 [Ex 39, 4-methoxy-N,2,6-trimethyl-N-[(4-{[4-(2-pyrrolidin-1-ylethyl)piperazin-1-yl]carbonyl}furan-2-yl)methyl]benzenesulfonamide] | 100 to 1000
COc1cc(C)c(S(=O)(=O)N(C)Cc2cc(C(=O)N(C)Cc3cc(CN4CCCC4)ccc3F)co2)c(C)c1 [Ex 156, N-[2-Fluoro-5-(pyrrolidin-1-ylmethyl)benzyl]-5-({[(4-methoxy-2,6-dimethylphenyl)sulfonyl](methyl)amino}methyl)-N-methylfuran-3-carboxamide trifluoroacetate] | 10 to 100
COc1cc(C)c(S(=O)(=O)N(Cc2nc(C(=O)N(C)Cc3ccc(CN4CC(O)C4)cc3)co2)C2CC2)c(C)c1 [Ex 188, 2-({Cyclopropyl[(4-methoxy-2,6-dimethylphenyl)sulfonyl]amino}methyl)-N-{4-[(3-hydroxyazetidin-1-yl)methyl]benzyl}-N-methyl-1,3-oxazole-4-carboxamide] | 10 to 100
COc1cc(C)c(S(=O)(=O)N(Cc2cc(C(=O)N3CCN(C4CC(C)(C)N(C)C(C)(C)C4)CC3)co2)C2CC2)c(C)c1 [Ex 108, N-Cyclopropyl-4-methoxy-2,6-dimethyl-N-[(4-{[4-(1,2,2,6,6-pentamethylpiperidin-4-yl)piperazin-1-yl]carbonyl}furan-2-yl)methyl]benzenesulfonamide trifluoroacetate] | 100 to 1000
COc1cc(C)c(S(=O)(=O)N(Cc2nc(C(=O)N3CCC(C4CCNCC4)CC3)co2)C2CC2)c(C)c1 [Ex 239, N-{[4-(4,4′-Bipiperidin-1-ylcarbonyl)-1,3-oxazol-2-yl]methyl}-N-cyclopropyl-4-methoxy-2,6-dimethylbenzenesulfonamide trifluoroacetate] | 100 to 1000
COc1cc(C)c(S(=O)(=O)N(C)Cc2cc(C(=O)NCc3ccc(CN4CCCCC4)cc3)co2)c(C)c1 [Ex 100, 5-({[(4-Methoxy-2,6-dimethylphenyl)sulfonyl](methyl)amino}methyl)-N-[4-(piperidin-1-ylmethyl)benzyl]furan-3-carboxamide trifluoroacetate] | 100 to 1000
COc1cc(C)c(S(=O)(=O)N(Cc2cc(C(=O)N(C)Cc3ccc(CN4CC(O)C4)cc3)co2)C2CC2)c(C)c1 [Ex 148, 5-({Cyclopropyl[(4-methoxy-2,6-dimethylphenyl)sulfonyl]amino}methyl)-N-{4-[(3-hydroxyazetidin-1-yl)methyl]benzyl}-N-methylfuran-3-carboxamide] | 10 to 100
COc1cc(C)c(S(=O)(=O)N(C)Cc2cc(C(=O)N(C)CCc3ccc(C4=NCCN4C)cc3)co2)c(C)c1 [Ex 98, 5-({[(4-Methoxy-2,6-dimethylphenyl)sulfonyl](methyl)amino}methyl)-N-methyl-N-{2-[4-(1-methyl-4,5-dihydro-1H-imidazol-2-yl)phenyl]ethyl}furan-3-carboxamide trifluoroacetamide] | 100 to 1000

The remaining lines, values ahead:

IC50 [nM] | Compound
< 10 | COc1cc(C)c(S(=O)(=O)N(Cc2nc(C(=O)N3CCN(CCN4CCCC4)CC3)co2)C2CC2)c(C)c1 [Ex 195, N-Cyclopropyl-4-methoxy-2,6-dimethyl-N-[(4-{[4-(2-pyrrolidin-1-ylethyl)piperazin-1-yl]carbonyl}-1,3-oxazol-2-yl)methyl]benzenesulfonamide trifluoroacetate]
< 10 | COc1cc(C)c(S(=O)(=O)N(Cc2cc(C(=O)N(C)CCc3ccc(C4=NCCN4)cc3)co2)C2CC2)c(C)c1 [Ex 84, 5-({cyclopropyl[(4-methoxy-2,6-dimethylphenyl)sulfonyl]amino}methyl)-N-{2-[4-(4,5-dihydro-1H-imidazol-2-yl)phenyl]ethyl}-N-methylfuran-3-carboxamide trifluoroacetate]
< 10 | COc1cc(C)c(S(=O)(=O)N(Cc2nnc(C(=O)N3CCN(C4CCN(C)CC4)CC3)s2)C2CC2)c(C)c1 [Ex 334, N-Cyclopropyl-4-methoxy-2,6-dimethyl-N-[(5-{[4-(1-methylpiperidin-4-yl)piperazin-1-yl]carbonyl}-1,3,4-thiadiazol-2-yl)methyl]benzenesulfonamide]
< 10 | COc1cc(C)c(S(=O)(=O)N(Cc2nc(C(=O)N3CCN(Cc4ccncc4)CC3)co2)C2CC2)c(C)c1 [Ex 162, N-Cyclopropyl-4-methoxy-2,6-dimethyl-N-[(4-{[4-(pyridin-4-ylmethyl)piperazin-1-yl]carbonyl}-1,3-oxazol-2-yl)methyl]benzenesulfonamide trifluoroacetate]
< 10 | COc1cc(C)c(S(=O)(=O)N(C)Cc2nc(C(=O)N(C)Cc3ccc(CN4CCC(OC)C4)cc3)co2)c(C)c1 (stereo not shown) [Ex 169, 2-({[(4-Methoxy-2,6-dimethylphenyl)sulfonyl](methyl)amino}methyl)-N-{4-[(3-methoxypyrrolidin-1-yl)methyl]benzyl}-N-methyl-1,3-oxazole-4-carboxamide]
< 10 | COc1cc(C)c(S(=O)(=O)N(C)Cc2noc(C(=O)N(C)CCc3ccc(C4=NCCN4)cc3)n2)c(C)c1 [Ex 301, N-{2-[4-(4,5-Dihydro-1H-imidazol-2-yl)phenyl]ethyl}-3-({[(4-methoxy-2,6-dimethylphenyl)sulfonyl](methyl)amino}methyl)-N-methyl-1,2,4-oxadiazole-5-carboxamide trifluoroacetamide]
< 10 | COc1cc(C)c(S(=O)(=O)N(Cc2nc(C(=O)N3CCN(CCCN(C)C)CC3)co2)C2CC2)c(C)c1 [Ex 196, N-Cyclopropyl-N-{[4-({4-[3-(dimethylamino)propyl]piperazin-1-yl}carbonyl)-1,3-oxazol-2-yl]methyl}-4-methoxy-2,6-dimethylbenzenesulfonamide trifluoroacetate]
< 10 | COc1cc(C)c(S(=O)(=O)N(C)Cc2nnc(C(=O)N3CCN(Cc4cccnc4N)CC3)o2)c(C)c1 [Ex 295, N-{[5-({4-[(2-Aminopyridin-3-yl)methyl]piperazin-1-yl}carbonyl)-1,3,4-oxadiazol-2-yl]methyl}-4-methoxy-N,2,6-trimethylbenzenesulfonamide]

— patent US8623859B2, “Bradykinin B1 antagonists” (Evotec AG, priority 2008, dated 2014)
